# From ChEMBL document CHEMBL4145514, “Unexplored antifungal activity of linear battacin lipopeptides against planktonic and mature biofilms of C. albicans” (Eur J Med Chem, 2018)
# The source made the active and inactive calls. The rule behind the calls is not given here. Bridge positions count the residues as written; N and C are the ends. Square brackets hold non-standard residues; d marks the D form. Peptide text beside a SMILES is read from it. * marks the point of attachment. ξ: configuration not given here. Hexanoyl(4ξ-Me) = CCC(C)CCC(=O)*; Myristoyl = CCCCCCCCCCCCCC(=O)*; X2 = CC(C)=CCC/C(C)=C/C(=O)*; X3 = CC[C@H](C)CCCCC(=O)*; dDab = NCC[C@@H](N)C(=O)O; X1 = CCC(C)CCC(O)CC(=O)*; Dab = NCC[C@H](N)C(=O)O
# Columns and labels:
# Candida albicans [1] = assay: Potency index, ratio of MIC for polymyxin B to compound MIC for antifungal activity against Candida albicans SC5314; assay type: functional
# Candida albicans [2] = assay: Synergistic antifungal activity against Candida albicans SC5314 assessed as FIC index after 48 hrs in presence of 800 nmol AmB; assay type: functional
# Candida albicans [3] = assay: Antifungal activity against Candida albicans SC5314 after 48 hrs; assay type: functional; conditions: SC5314, 48 h
# Candida albicans [4] = assay: Ratio of MIC for Candida albicans SC5314 to MIC for Candida albicans SC5314 in presence of 400 nmol AmB; assay type: functional
# Candida albicans [5] = assay: Synergistic antifungal activity against Candida albicans SC5314 assessed as FIC index after 48 hrs in presence of 400 nmol AmB; assay type: functional
# Candida albicans [6] = assay: Synergistic antifungal activity against Candida albicans SC5314 after 48 hrs in presence of 800 nmol AmB; assay type: functional; conditions: SC5314, 48 h
# Candida albicans [7] = assay: Synergistic antifungal activity against Candida albicans SC5314 after 48 hrs in presence of 400 nmol AmB; assay type: functional; conditions: SC5314, 48 h
# Candida albicans [8] = assay: Ratio of MIC for Candida albicans SC5314 to MIC for Candida albicans SC5314 in presence of 800 nmol AmB; assay type: functional
# Lipid bilayer = assay: Disruption of phosphatidylcholine/ phosphatidylinositol/phosphatidylethanolamine membrane at 200 uM by colorimetric assay
# Candida albicans [9] = assay: Induction of morphological changes in Candida albicans SC5314 assessed as disruption of fungal cell walls at 0.5 to 10 times MIC after 45 mins by Uranyl acetate/Lead citrate staining based transmission electron microscopic analysis; assay type: functional, organism-based
# Candida albicans [10] = assay: Induction of morphological changes in Candida albicans SC5314 assessed as disruption of fungal cell membranes at 0.5 to 10 times MIC after 45 mins by Uranyl acetate/Lead citrate staining based transmission electron microscopic analysis; assay type: functional, organism-based
# [11] = Haemolytic activity in mouse RBC at 6 uM incubated for 1 hr relative to control; assay type: ADME, cell-based, Erythrocyte; conditions: mouse red blood cells (erythrocytes), read-out: Activity
# Candida albicans [12] = assay: Induction of eradication of 48 hrs old preformed Candida albicans SC5314 biofilm up to 125 uM after 24 to 48 hrs by XTT assay; assay type: functional, organism-based
# Candida albicans [13] = assay: Induction of eradication of 24 hrs old preformed Candida albicans SC5314 biofilm after 24 to 48 hrs by XTT assay; assay type: functional
# Candida albicans [14] = assay: Antibiofilm activity against Candida albicans SC5314 incubated for overnight by XTT assay; assay type: functional
# Candida albicans [15] = assay: Induction of morphological changes in Candida albicans SC5314 assessed as necrosis of cytoplasm at 0.5 to 10 times MIC after 45 mins by Uranyl acetate/Lead citrate staining based transmission electron microscopic analysis; assay type: functional, organism-based
# HEK293 = assay: Cytotoxicity against HEK293 cells after 48 hrs by MTT assay; assay type: cell-based; conditions: human, hek293, 48 h
# Erythrocyte = assay: Haemolytic activity in human RBC incubated for 2 hrs; assay type: ADME, cell-based
# [16] = Toxicity in iv dosed Kunming mouse assessed as death counted daily for 14 days; assay type: organism-based; conditions: in vivo
smiles,measurement,setting,value
CCC(C)CCC(=O)N[C@H](CCN)C(=O)N[C@@H](CCN)C(=O)N[C@@H](CCN)C(=O)N[C@@H](CC(C)C)C(=O)N[C@H](Cc1ccccc1)C(=O)N[C@@H](CCN)C(=O)N[C@@H](CCN)C(=O)N[C@@H](CC(C)C)C(N)=O (stereo partly drawn) ({Hexanoyl(4ξ-Me)}-[dDab][Dab][Dab]L[dF][Dab][Dab]L-NH2),Ratio,Candida albicans [1],2
same,fractional inhibitory concentration index (FICI),Candida albicans [2],1.03
same,MIC,Candida albicans [3],50 µM
same,Ratio,Candida albicans [4],4
same,fractional inhibitory concentration index (FICI),Candida albicans [5],8.26
same,MIC,Candida albicans [6],1.56 µM
same,MIC,Candida albicans [7],12.5 µM
same,Ratio,Candida albicans [8],8 - 32
CCC(C)CCC(=O)N[C@H](CCCCN)C(=O)N[C@@H](CCCCN)C(=O)N[C@@H](CCCCN)C(=O)N[C@@H](CC(C)C)C(=O)N[C@H](Cc1ccccc1)C(=O)N[C@@H](CCCCN)C(=O)N[C@@H](CCCCN)C(=O)N[C@@H](CC(C)C)C(N)=O (stereo not given in full),MIC,Candida albicans [3],> 100 µM
CCCCCC(=O)N[C@H](CCN)C(=O)N[C@@H](CCN)C(=O)N[C@@H](CCN)C(=O)N[C@@H](CC(C)C)C(=O)N[C@H](Cc1ccccc1)C(=O)N[C@@H](CCN)C(=O)N[C@@H](CCN)C(=O)N[C@@H](CC(C)C)C(N)=O,Activity,Lipid bilayer,inactive
same,MIC,Candida albicans [3],100 µM
CC(C)C[C@H](NC(=O)[C@H](CCN)NC(=O)[C@H](CCN)NC(=O)[C@@H](Cc1ccccc1)NC(=O)[C@H](CC(C)C)NC(=O)[C@H](CCN)NC(=O)[C@H](CCN)NC(=O)[C@@H](CCN)NC(=O)[C@H](N)CS)C(N)=O,MIC,Candida albicans [3],> 100 µM
CC(=O)N[C@H](CCN)C(=O)N[C@@H](CCN)C(=O)N[C@@H](CCN)C(=O)N[C@@H](CC(C)C)C(=O)N[C@H](Cc1ccccc1)C(=O)N[C@@H](CCN)C(=O)N[C@@H](CCN)C(=O)N[C@@H](CC(C)C)C(N)=O,Activity,Lipid bilayer,inactive
same,MIC,Candida albicans [3],> 100 µM
CCCCC(=O)N[C@H](CCN)C(=O)N[C@@H](CCN)C(=O)N[C@@H](CCN)C(=O)N[C@@H](CC(C)C)C(=O)N[C@H](Cc1ccccc1)C(=O)N[C@@H](CCN)C(=O)N[C@@H](CCN)C(=O)N[C@@H](CC(C)C)C(N)=O,Activity,Lipid bilayer,inactive
same,MIC,Candida albicans [3],> 100 µM
CC(C)C[C@H](NC(=O)[C@H](CCN)NC(=O)[C@H](CCN)NC(=O)[C@@H](Cc1ccccc1)NC(=O)[C@H](CC(C)C)NC(=O)[C@H](CCN)NC(=O)[C@H](CCN)NC(=O)[C@@H](CCN)NC(=O)OCC1c2ccccc2-c2ccccc21)C(N)=O,MIC,Candida albicans [3],12.5 µM
CCC(C)CCC(=O)N[C@H](CCN)C(=O)N[C@@H](CCN)C(=O)N[C@@H](CCN)C(=O)N[C@@H](CC(C)C)C(=O)N[C@H](Cc1ccccc1)C(=O)N[C@@H](CCN)C(=O)N[C@@H](CCN)C(=O)N[C@@H](CC(C)C)C(=O)N[C@H](CCN)C(=O)N[C@@H](CCN)C(=O)N[C@@H](CCN)C(=O)N[C@@H](CC(C)C)C(=O)N[C@H](Cc1ccccc1)C(=O)N[C@@H](CCN)C(=O)N[C@@H](CCN)C(=O)N[C@@H](CC(C)C)C(N)=O (stereo not given in full),fractional inhibitory concentration index (FICI),Candida albicans [2],1.12
same,MIC,Candida albicans [3],12.5 µM
same,Ratio,Candida albicans [4],4
same,fractional inhibitory concentration index (FICI),Candida albicans [5],2.24
same,MIC,Candida albicans [6],1.56 µM
same,MIC,Candida albicans [7],3.12 µM
same,Ratio,Candida albicans [8],8 - 32
CCCC(=O)N[C@H](CCN)C(=O)N[C@@H](CCN)C(=O)N[C@@H](CCN)C(=O)N[C@@H](CC(C)C)C(=O)N[C@H](Cc1ccccc1)C(=O)N[C@@H](CCN)C(=O)N[C@@H](CCN)C(=O)N[C@@H](CC(C)C)C(N)=O,Activity,Lipid bilayer,inactive
same,MIC,Candida albicans [3],> 100 µM
C[C@@H]1[C@H](O)[C@@H](C)/C=C/C=C/C=C/C=C/C=C/C=C/C=C/[C@H](O[C@@H]2O[C@H](C)[C@@H](O)[C@H](N)[C@@H]2O)C[C@@H]2O[C@](O)(C[C@@H](O)C[C@@H](O)[C@H](O)CC[C@@H](O)C[C@@H](O)CC(=O)O[C@H]1C)C[C@H](O)[C@H]2C(=O)O [AMPHOTERICIN B],Activity,Candida albicans [9],Active
same,Activity,Candida albicans [10],Active
same,"hemolysis at 1 h, 6 µM",[11],50%
same,MIC,Candida albicans [3],1.56 µM
same,Activity,Candida albicans [12],inactive
same,MBEC50,Candida albicans [13],6.25 µM
same,MBIC50,Candida albicans [14],0.78 µM
same,Activity,Candida albicans [15],Active
CCC(=O)N[C@H](CCN)C(=O)N[C@@H](CCN)C(=O)N[C@@H](CCN)C(=O)N[C@@H](CC(C)C)C(=O)N[C@H](Cc1ccccc1)C(=O)N[C@@H](CCN)C(=O)N[C@@H](CCN)C(=O)N[C@@H](CC(C)C)C(N)=O,Activity,Lipid bilayer,inactive
same,MIC,Candida albicans [3],> 100 µM
CC(C)C[C@H](NC(=O)[C@H](CCN)NC(=O)[C@H](CCN)NC(=O)[C@@H](Cc1ccccc1)NC(=O)[C@H](CC(C)C)NC(=O)[C@H](CCN)NC(=O)[C@H](CCN)NC(=O)[C@H](N)CCN)C(N)=O (H-[dDab][Dab][Dab]L[dF][Dab][Dab]L-NH2),MIC,Candida albicans [3],> 100 µM
CCC(C)CCC(=O)N[C@H](CCN)C(=O)N[C@@H](CCN)C(=O)N[C@@H](CCN)C(=O)N[C@@H](CC(C)C)C(=O)N[C@H](Cc1c[nH]c2ccccc12)C(=O)N[C@@H](CCN)C(=O)N[C@@H](CCN)C(=O)N[C@@H](CC(C)C)C(N)=O (stereo not given in full),MIC,Candida albicans [3],25 µM
CC(C)=CCC/C(C)=C/C(=O)N[C@H](CCN)C(=O)N[C@@H](CCN)C(=O)N[C@@H](CCN)C(=O)N[C@@H](CC(C)C)C(=O)N[C@H](Cc1ccccc1)C(=O)N[C@@H](CCN)C(=O)N[C@@H](CCN)C(=O)N[C@@H](CC(C)C)C(N)=O (X2-[dDab][Dab][Dab]L[dF][Dab][Dab]L-NH2),MIC,Candida albicans [3],50 µM
CCC(C)CCC(O)CC(=O)N[C@H](CCN)C(=O)N[C@H]1CCNC(=O)[C@H](CC(C)C)NC(=O)[C@H](CCN)NC(=O)[C@H](CCN)NC(=O)[C@@H](Cc2ccccc2)NC(=O)[C@H](CC(C)C)NC(=O)[C@H](CCN)NC1=O (stereo not given in full) (X1-[dDab][Dab][Dab]L[dF][Dab][Dab]L; lactam 2-C),Activity,HEK293,> 128 µg/mL
same,Activity,Erythrocyte,> 750 µg/mL
same,LD50 at 336 h,[16],6 mg/kg
CCCCCCCCCCCCCC(=O)N[C@H](CCN)C(=O)N[C@@H](CCN)C(=O)N[C@@H](CCN)C(=O)N[C@@H](CC(C)C)C(=O)N[C@H](Cc1ccccc1)C(=O)N[C@@H](CCN)C(=O)N[C@@H](CCN)C(=O)N[C@@H](CC(C)C)C(N)=O (Myristoyl-[dDab][Dab][Dab]L[dF][Dab][Dab]L-NH2),MIC,Candida albicans [3],12.5 µM
CC[C@H](C)CCCCC(=O)N[C@@H](CCN)C(=O)N[C@H](C(=O)N[C@@H](CCN)C(=O)N[C@H]1CCNC(=O)[C@H]([C@@H](C)O)NC(=O)[C@H](CCN)NC(=O)[C@H](CCN)NC(=O)[C@H](CC(C)C)NC(=O)[C@@H](Cc2ccccc2)NC(=O)[C@H](CCN)NC1=O)[C@@H](C)O (X3-[Dab]T[Dab][Dab][Dab][dF]L[Dab][Dab]T; lactam 4-C),MIC,Candida albicans [3],> 100 µM
CCC(C)CCC(=O)N[C@H](CCN)C(=O)N[C@@H](CCN)C(=O)N[C@@H](CC(C)C)C(=O)N[C@H](Cc1ccccc1)C(=O)N[C@@H](CCN)C(N)=O (stereo not given in full) ({Hexanoyl(4ξ-Me)}-[dDab][Dab]L[dF][Dab]-NH2),MIC,Candida albicans [3],> 100 µM
